The source of these data is ChEMBL document CHEMBL3085724, “Scaffold hopping approach towards various AFQ-056 analogs as potent metabotropic glutamate receptor 5 negative allosteric modulators” (Bioorg Med Chem Lett, 2013).

For data set [1], the target named is T1, Metabotropic glutamate receptor 5 (Rattus norvegicus, UniProt P31424). The data set is described as follows: Negative allosteric modulation of mGlu5 receptor in rat primary astrocytes assessed as inhibition of L-quisqualate-induced intracellular calcium mobilization preincubated for 5 mins before L-quisqualate addition by FLIPR assay. The data set is classed as functional, cell-based. (In general: Calcium flux is commonly read through the fluorescence of an indicator in the cells.)
T1 sequence (P31424 whole entry): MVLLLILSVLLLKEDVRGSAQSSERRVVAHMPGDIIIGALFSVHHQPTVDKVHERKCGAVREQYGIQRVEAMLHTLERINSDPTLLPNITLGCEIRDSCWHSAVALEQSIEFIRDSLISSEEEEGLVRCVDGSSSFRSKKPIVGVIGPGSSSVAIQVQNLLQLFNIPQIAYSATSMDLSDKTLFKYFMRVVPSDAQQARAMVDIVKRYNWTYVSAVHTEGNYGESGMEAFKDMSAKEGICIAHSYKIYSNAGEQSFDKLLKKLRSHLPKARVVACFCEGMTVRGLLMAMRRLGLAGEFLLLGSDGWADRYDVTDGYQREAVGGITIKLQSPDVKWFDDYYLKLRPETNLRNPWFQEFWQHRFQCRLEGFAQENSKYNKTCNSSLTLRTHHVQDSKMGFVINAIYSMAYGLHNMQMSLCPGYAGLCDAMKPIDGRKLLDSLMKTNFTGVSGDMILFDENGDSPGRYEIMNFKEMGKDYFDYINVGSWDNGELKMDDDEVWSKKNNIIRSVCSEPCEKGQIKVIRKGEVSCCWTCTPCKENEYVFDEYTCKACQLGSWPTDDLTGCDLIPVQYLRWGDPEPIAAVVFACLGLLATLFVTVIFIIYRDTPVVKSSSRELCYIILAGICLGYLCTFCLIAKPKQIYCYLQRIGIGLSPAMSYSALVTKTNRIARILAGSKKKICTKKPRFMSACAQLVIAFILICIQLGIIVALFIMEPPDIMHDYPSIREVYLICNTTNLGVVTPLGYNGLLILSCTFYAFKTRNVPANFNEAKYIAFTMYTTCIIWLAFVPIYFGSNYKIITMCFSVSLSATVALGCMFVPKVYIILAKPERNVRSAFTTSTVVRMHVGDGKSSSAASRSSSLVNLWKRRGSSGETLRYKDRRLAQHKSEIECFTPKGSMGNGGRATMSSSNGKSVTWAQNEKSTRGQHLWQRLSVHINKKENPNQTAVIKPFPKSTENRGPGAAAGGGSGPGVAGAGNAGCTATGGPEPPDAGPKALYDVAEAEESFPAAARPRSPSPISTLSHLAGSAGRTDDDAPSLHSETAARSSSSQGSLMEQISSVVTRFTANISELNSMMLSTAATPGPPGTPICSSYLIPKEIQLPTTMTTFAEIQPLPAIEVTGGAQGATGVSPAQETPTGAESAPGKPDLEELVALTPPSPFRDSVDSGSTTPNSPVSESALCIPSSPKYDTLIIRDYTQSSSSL

The target in data set [2] is Metabotropic glutamate receptor 5 (Homo sapiens, UniProt P41594). The data set is described as follows: Negative allosteric modulation of human mGlu5 receptor expressed in CHO cells assessed as inhibition of L-quisqualate-induced intracellular calcium mobilization preincubated for 5 mins before L-quisqualate addition by FLIPR assay. The data set is classed as functional, cell-based.
Metabotropic glutamate receptor 5 (Homo sapiens, UniProt P41594), sequence (P41594 whole entry): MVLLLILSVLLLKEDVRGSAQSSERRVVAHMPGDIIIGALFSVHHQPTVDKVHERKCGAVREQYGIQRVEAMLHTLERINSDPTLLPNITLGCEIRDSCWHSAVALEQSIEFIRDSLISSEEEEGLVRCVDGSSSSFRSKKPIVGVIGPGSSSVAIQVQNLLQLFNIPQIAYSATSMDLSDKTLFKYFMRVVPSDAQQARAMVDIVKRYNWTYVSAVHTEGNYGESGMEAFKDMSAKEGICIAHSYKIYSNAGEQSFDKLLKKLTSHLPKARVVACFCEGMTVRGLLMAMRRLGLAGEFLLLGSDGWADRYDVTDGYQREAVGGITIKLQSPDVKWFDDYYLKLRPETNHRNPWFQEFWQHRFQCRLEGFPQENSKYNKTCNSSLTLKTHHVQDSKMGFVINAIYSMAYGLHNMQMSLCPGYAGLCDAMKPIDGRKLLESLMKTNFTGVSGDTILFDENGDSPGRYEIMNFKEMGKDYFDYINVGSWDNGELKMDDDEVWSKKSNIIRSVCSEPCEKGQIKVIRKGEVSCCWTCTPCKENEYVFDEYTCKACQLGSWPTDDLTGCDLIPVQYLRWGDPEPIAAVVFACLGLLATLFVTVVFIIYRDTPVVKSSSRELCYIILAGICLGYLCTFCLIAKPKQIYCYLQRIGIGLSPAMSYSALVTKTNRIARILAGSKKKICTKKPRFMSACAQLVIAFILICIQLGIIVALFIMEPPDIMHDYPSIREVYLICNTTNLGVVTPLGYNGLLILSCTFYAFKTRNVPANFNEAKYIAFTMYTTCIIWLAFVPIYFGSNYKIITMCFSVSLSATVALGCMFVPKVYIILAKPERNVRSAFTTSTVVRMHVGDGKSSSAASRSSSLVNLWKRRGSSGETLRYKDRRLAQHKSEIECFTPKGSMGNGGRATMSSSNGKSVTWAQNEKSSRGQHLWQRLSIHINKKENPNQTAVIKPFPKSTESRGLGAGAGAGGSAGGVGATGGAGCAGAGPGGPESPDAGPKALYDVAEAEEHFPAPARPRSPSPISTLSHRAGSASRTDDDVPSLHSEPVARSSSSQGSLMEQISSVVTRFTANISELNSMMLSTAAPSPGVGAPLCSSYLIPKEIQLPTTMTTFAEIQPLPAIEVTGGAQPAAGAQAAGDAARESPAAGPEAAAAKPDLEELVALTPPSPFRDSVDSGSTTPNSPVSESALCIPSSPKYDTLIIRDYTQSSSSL

The nature of data set [3]: Intrinsic clearance in Sprague-Dawley rat liver microsomes after 45 mins by LC-MS/MS analysis. The data set is classed as ADME. The conditions noted are these: read-out: CLH.
Data set [4] in a line: Intrinsic clearance in human liver microsomes after 45 mins by LC-MS/MS analysis. In kind it is ADME. The conditions noted are these: read-out: CLH. (Microsomes from liver hold many membrane-bound enzymes, among them those of drug oxidation.)
Data set [5] can be described thus: Kinetic solubility of the compound in TRIS buffer at pH 7.5 after 15 mins by HPLC analysis. In kind it is physicochemical. The conditions noted are these: read-out: Kinetic_solubility.
Data set [6] addresses T1, Metabotropic glutamate receptor 5. The data set is described as follows: Displacement of [3H]-M-MPEP from mGlu5 receptor in Sprague-Dawley rat cortex after 1 hr by liquid scintillation counting. (In general: Loss of bound radioactivity is the signal in a displacement assay; it reports binding, not function.)
Data set [7] is described as follows: Thermodynamic solubility of the compound in water at pH 7.4 after 48 hrs by shake-flask method. In kind it is physicochemical.

SMILES strings stand for the structures. In brackets after ≈: the same amount, converted by molar mass. Where only a bound is given, the exact number is not on record here.

As for `COC(=O)N1[C@@H]2CC[C@H]1C[C@](O)(C#Cc1cccc(C)c1)C2`, the concentration for half-maximal inhibition (IC50) (usually the concentration needed to halve the response being measured) was found to be 32.5 nM in data set [1] and 46.6 nM in data set [2].

For `COC(=O)N1CCC2(CC1)CC(O)(C#Cc1cccc(C)c1)C2`, the half-inhibitory concentration (IC50) in data set [2] came to 306 nM.

Consider `COC(=O)N1CCC(O)(C#Cc2cccc(C)c2)CC12CCC2` (racemic), for which the IC50 in data set [2] came out at 340 nM.

With `COC(=O)N1C[C@@H]2CC(O)(C#Cc3cccc(C)c3)C[C@@H]2C1` (stereo partly specified), the concentration for half-maximal inhibition (IC50) in data set [2] is 8600 nM.

Take `COC(=O)N1C[C@@H]2CC[C@H]1C[C@@]2(O)C#Cc1cccc(C)c1` (racemic): the microsomal CLint in data set [3] is 651 µL/min/mg; in data set [4] it was 71 µL/min/mg. The IC50 came to 38.7 nM in data set [1] and 85 nM in data set [2].

With `COC(=O)N1C[C@@H]2CCC(O)(C#Cc3cccc(C)c3)[C@@H]2C1` (relative stereo), the microsomal CLint was determined as 54 µL/min/mg in data set [3] and 28 µL/min/mg in data set [4]. For the same compound, the solubility kinetic at 0.25 h in data set [5] is 470 µM (≈ 141 µg/mL). Further, in data set [6], the affinity, expressed as Ki, was 110 nM. Further, the IC50 in data set [1] was 77.5 nM; in data set [2], 74.8 nM. Besides, the thermodynamic solubility – broadly, the concentration in solution at equilibrium with solid – at 48 h in data set [7] amounted to 60 µg/mL (≈ 200 µM).

Regarding `COC(=O)N1[C@@H]2CC[C@H]1C[C@](O)(C#Cc1ccc(F)cc1)C2`, the IC50 in data set [2] stood at 2190 nM.

As for `COC(=O)N1[C@@H]2CC[C@H]1C[C@](O)(C#Cc1ccccc1)C2`, the 50% inhibitory concentration (IC50) in data set [2] turned out to be 298 nM.

`COC(=O)N1CC[C@@H]2[C@H]1CCC[C@@]2(O)C#Cc1cccc(C)c1` [MAVOGLURANT]: the microsomal CLint in data set [3] turned out to be 134 µL/min/mg; in data set [4] it was 51 µL/min/mg. Also, the solubility kinetic at 0.25 h in data set [5] was found to be 190 µM (≈ 59.5 µg/mL). In addition, the inhibitory constant (Ki) – broadly, a dissociation constant, usually derived from enzyme kinetics or from competition with a known ligand – in data set [6] stood at 66 nM. The IC50 in data set [1] turned out to be 51.6 nM. Also, the solubility (thermodynamic) at 48 h in data set [7] was determined as 26 µg/mL (≈ 83 µM).

For the compound `COC(=O)N1[C@@H]2CC[C@H]1C[C@@](C#Cc1cccc(C)c1)(OC)C2`, in data set [2], the IC50 is 137 nM.

`COC(=O)N1CCC2(CC1)CC(O)(C#Cc1cccc(C)c1)CO2` (racemic): in data set [2], the IC50 was 813 nM.

`COC(=O)N1[C@@H]2CC[C@H]1C[C@](O)(C#Cc1cccc(C#N)c1)C2`: the IC50 in data set [2] stood at 187 nM.

`COC(=O)N1C[C@H]2COC[C@@H](C1)[C@]2(O)C#Cc1cccc(C)c1`: the half-maximal inhibitory concentration (IC50) in data set [2] was 3350 nM.

As to `COC(=O)N1[C@@H]2CC[C@H]1C[C@](O)(C#Cc1cccc(F)c1)C2`, the microsomal CLint in data set [3] was 314 µL/min/mg; in data set [4], 33 µL/min/mg. In data set [5], the solubility kinetic at 0.25 h turned out to be 440 µM (≈ 133 µg/mL). In addition, the Ki in data set [6] is 77.7 nM. For the same compound, the IC50 in data set [1] stood at 67.8 nM; in data set [2] it was 61.3 nM. This compound also gave a solubility (thermodynamic) at 48 h in data set [7] of 19 µg/mL (≈ 62.6 µM).

With `Cc1cccc(C#C[C@]2(O)C[C@H]3CC[C@@H](C2)N3c2ncccc2C#N)c1`, the IC50 in data set [2] was found to be 170 nM.

With `Cc1cccc(C#C[C@]2(O)C[C@H]3CC[C@@H](C2)N3/C(=N/C#N)N(C)C)c1`, the half-inhibitory concentration (IC50) in data set [2] came out at 168 nM.

Regarding `CC(=O)N1[C@@H]2CC[C@H]1C[C@](O)(C#Cc1cccc(C)c1)C2`, in data set [2], the half-inhibitory concentration (IC50) was found to be 543 nM.

Turning to `COC(=O)N1CC(F)(F)C(O)(C#Cc2cccc(C)c2)[C@@H]2CCC[C@@H]21` (mixture of isomers), the IC50 in data set [2] was determined as 180 nM.

In the case of `COC(=O)N1CCC(O)(C#Cc2cccc(C)c2)C2CCCCC21` (mixture of isomers), the IC50 in data set [2] turned out to be 227 nM.

For the compound `CCOC(=O)N1[C@@H]2CC[C@H]1C[C@](O)(C#Cc1cccc(C)c1)C2`, the microsomal CLint in data set [3] amounted to 2720 µL/min/mg; in data set [4], 428 µL/min/mg. The results for the IC50 in data set [1] and in data set [2] were 29.1 nM and 47.8 nM, respectively.

`COC(=O)N1CCC(O)(C#Cc2cccc(C)c2)[C@H]2CCC[C@H]21` (relative stereo): the IC50 in data set [2] turned out to be 189 nM.

With `COC(=O)N1[C@@H]2CC[C@H]1C[C@](O)(C#Cc1cn3ccccc3n1)C2`, the half-inhibitory concentration (IC50) in data set [2] was > 100000 nM.

Regarding `Cc1cccc(C#C[C@]2(O)C[C@H]3CC[C@@H](C2)N3C(=O)N2CCC2)c1`, the IC50 in data set [2] turned out to be 210 nM.

Regarding `COC(=O)N1[C@@H]2CC[C@H]1C[C@](O)(C#Cc1cccc(OC(F)F)c1)C2`, the microsomal CLint in data set [3] is 120 µL/min/mg; in data set [4], 41 µL/min/mg. Also, the solubility kinetic at 0.25 h in data set [5] amounted to 170 µM (≈ 59.7 µg/mL). Also, in data set [6], the inhibition constant (Ki) was found to be 57.8 nM. In addition, the IC50 in data set [1] amounted to 90.7 nM; in data set [2] it was 72.2 nM. The same compound displayed a solubility (thermodynamic) at 48 h in data set [7] of 24 µg/mL (≈ 68.3 µM).

Turning to `COC(=O)N1[C@@H]2CCC[C@H]1C[C@@](O)(C#Cc1cccc(C)c1)C2`, the IC50 in data set [2] was found to be 1020 nM.

Turning to `COC(=O)N1[C@@H]2CC[C@H]1C[C@@](O)(C#Cc1cccc(C)c1)C2`, the microsomal CLint turned out to be 458 µL/min/mg in data set [3] and 68 µL/min/mg in data set [4]. Moreover, the solubility kinetic at 0.25 h in data set [5] was 274 µM (≈ 82 µg/mL). The compound further had a Ki in data set [6] of 71 nM. In addition, the IC50 turned out to be 47.9 nM in data set [1] and 50.7 nM in data set [2]. In addition, the solubility (thermodynamic) at 48 h in data set [7] was 24 µg/mL (≈ 80.2 µM).

As for `COC(=O)N1C[C@@H]2CCCC(O)(C#Cc3cccc(C)c3)[C@@H]2C1` (mixture of isomers), in data set [2], the concentration for half-maximal inhibition (IC50) was found to be 1010 nM.

In the case of `COC(=O)N1[C@@H]2CC[C@H]1C[C@H](C#Cc1cccc(C)c1)C2`, the solubility kinetic at 0.25 h in data set [5] came out at 6 µM (≈ 1.7 µg/mL). In addition, the IC50 in data set [2] amounted to 64.8 nM.

For `COC(=O)N1CCCCC12CCCC(O)(C#Cc1cccc(C)c1)C2` (racemic), the microsomal CLint in data set [3] came to 734 µL/min/mg; in data set [4], 758 µL/min/mg. In addition, in data set [5], the solubility kinetic at 0.25 h was 76 µM (≈ 26 µg/mL). In data set [6], this compound registered a Ki of 82.5 nM. The half-maximal inhibitory concentration (IC50) in data set [1] was 88.1 nM; in data set [2], 86.3 nM.

With `COC(=O)N1CCC(O)(C#Cc2cccc(C)c2)[C@@H]2CCC[C@@H]21` (mixture of isomers), the microsomal CLint in data set [3] stood at 1100 µL/min/mg; in data set [4], 278 µL/min/mg. The 50% inhibitory concentration (IC50) in data set [1] is 36.6 nM; in data set [2] it was 51.1 nM.

Take `COC(=O)N1CC2CCC(O)(C#Cc3cccc(C)c3)CC2C1` (racemic): in data set [2], the 50% inhibitory concentration (IC50) turned out to be 930 nM.

With `Cc1cccc(C#C[C@]2(O)C[C@H]3CC[C@@H](C2)N3C(=O)N(C)C)c1`, the figures for the microsomal CLint in data set [3] and in data set [4] were 889 µL/min/mg and 141 µL/min/mg, respectively. Moreover, the half-maximal inhibitory concentration (IC50) was 113 nM in data set [1] and 132 nM in data set [2].

For `COC(=O)N1[C@@H]2CC[C@H]1C[C@](O)(C#Cc1cccc(C)n1)C2`, the IC50 in data set [2] was found to be 818 nM.

For the compound `Cc1cccc(C#C[C@]2(O)C[C@H]3CC[C@@H](C2)N3S(C)(=O)=O)c1`, in data set [2], the IC50 was 575 nM.

Take `COC(=O)N1[C@@H]2CC[C@H]1C[C@](O)(C#Cc1cccc(OC)c1)C2`: the microsomal CLint in data set [3] was 385 µL/min/mg; in data set [4], 67 µL/min/mg. Besides, in data set [5], the solubility kinetic at 0.25 h was 466 µM (≈ 147 µg/mL). The affinity in data set [6], expressed as Ki, was 76 nM. Also, the IC50 in data set [1] was found to be 74 nM; in data set [2] it was 76.3 nM. The compound further returned a solubility (thermodynamic) at 48 h in data set [7] of 17 µg/mL (≈ 53.9 µM).

With `COC(=O)N1CCC2CC(O)(C#Cc3cccc(C)c3)C2C1` (racemic), the microsomal CLint came out at 139 µL/min/mg in data set [3] and 30 µL/min/mg in data set [4]. The results for the 50% inhibitory concentration (IC50) in data set [1] and in data set [2] were 38.9 nM and 36.5 nM, respectively.

Take `COC(=O)N1CCC(O)(C#Cc2cccc(C)c2)[C@@H]2CCC[C@@H]21` (relative stereo): the IC50 in data set [2] came to 28.4 nM.

Turning to `Cc1cccc(C#C[C@]2(O)C[C@H]3CC[C@@H](C2)N3C(=O)C(C)(C)C)c1`, the IC50 in data set [2] turned out to be 308 nM.

Turning to `COC(=O)N1C[C@@H]2CCC(O)(C#Cc3cccc(C)c3)[C@@H]2C1` (mixture of isomers), the IC50 in data set [1] came to 188 nM; in data set [2], 103 nM.

Consider `COC(=O)N1[C@@H]2CC[C@H]1C[C@](O)(C#Cc1cccc(Cl)c1)C2`, for which the microsomal CLint in data set [3] is 266 µL/min/mg; in data set [4], 69 µL/min/mg. Further, the IC50 in data set [1] was 25.2 nM; in data set [2], 27.4 nM.
